Measurements reported in patent US8968709B2, “Therapeutic dental composition and related methods” (3M Innovative Properties Company, priority 2007, dated 2015).
In brackets after ≈: the same amount, converted by molar mass. Where two headings read alike, the source gives them in different places.

How the values were obtained:
Type in all cases: cell-based
[1] = system: Streptococcus mutans (ATCC 25175) biofilm; experiment: Quantitative Biofilm Inhibition Test; settings: average optical density at 550 nm as percentage of control; 1 weight percent compound, 1.0 weight percent sucrose in brain heart infusion broth, 37° C., approximately twenty hours, five discs
Experimental: Compounds of the dental compositions of the invention, and comparative compounds, were evaluated for biofilm inhibition activity. Composite dental restorative (available under the trade designation “FILTEK SUPREME” from 3M ESPE Dental Products, St. Paul, Minn.) was placed in a 15 millimeter by 1 millimeter stainless steel die. The open ends of the die were then covered with polyester film and the die was subjected to a pressure of 68.95 MPa using a hydraulic press. While the die containing the composite restorative was under compression, the composite was irradiated for two minutes using a Model ACE light source (available from SCHOTT North America, Inc., Auburn, N.Y.). The discs of cured composite restorative were then further cured using a Model UniXS light box (available from Heraeus Kulzer, Inc., Armonk, N.Y.) for 1.5 minutes.
The cured discs of composite restorative were then immersed in ten milliliters of Streptococcus mutans culture (ATCC 25175; 10^6 CFU/mL) prepared in brain heart infusion broth that contained 1.0 weight percent sucrose and 1 weight percent of a compound of the dental composition. The samples were incubated at 37° C. for approximately twenty hours, after which time the cured discs were removed from the broth and were gently rinsed with water. Each disc was placed in a separate test tube containing five milliliters of 1M aqueous sodium hydroxide solution, and each test tube was then sonicated for two minutes using a model SH1012-40-8 ultrasonic generator (manufactured by Branson Ultrasonics Corp., Danbury, Conn.) for two minutes to dislodge biofilm on the disc. The optical absorbance (optical density) of each aqueous sodium hydroxide solution was then measured at 550 nm using a Model ULTROSPEC III UV-visible spectrophotometer (manufactured by Pharmacia AB, Uppsala, Sweden). For each compound of the dental composition, five discs were separately incubated in broth and were evaluated separately to provide five optical density measurements. The average of the five optical density measurements was then calculated. […] The average optical density of the control or comparative samples was determined as described above. The ratio, expressed as a percentage, of the average optical density for each compound sample to the average optical density for a control sample was calculated by dividing the average optical density for each compound sample by the average optical density for a control sample and multiplying the result by one hundred. The ratio was considered to be proportional to the average amount of biofilm on the five cured discs, i.e., relatively low average optical density ratio was considered to be indicative of inhibition of biofilm formation. The ratio for the control was 100%.
(§1) The Biofilm Inhibition Test was carried out using compounds of the dental composition. […] In addition, a qualitative determination of biofilm formation was made for each Example and the Comparative Example in which each disc was visually examined before it was placed in the tube containing the aqueous sodium hydroxide solution.

[2] = system: Streptococcus mutans (ATCC 25175) biofilm; experiment: Qualitative Biofilm Inhibition Test (visual examination of discs); set-up: key: +: a visual assessment that a compound inhibited biofilm formation; −: a visual assessment that either a compound did not inhibit biofilm formation, or that bacteria grew in the culture broth; settings: visible biofilm on cured composite disc after incubation and water rinse; 1 weight percent compound, 1.0 weight percent sucrose
Experimental: as §1, with “During the procedure for the Quantitative Biofilm Inhibition Test, each cured disc was visually examined after it was removed from the broth (and rinsed with water) and before it was placed in a test tube containing five milliliters of 1M aqueous sodium hydroxide solution. The presence or absence of visible biofilm on a disc was noted. The” for “The”

[3] = system: Streptococcus mutans (strain ATCC 25175); experiment: Minimum Inhibitory Concentration (MIC) Test, S. mutans; settings: 37° C., 24 hours, "none" = no inhibitory activity detected
Experimental: (§2) The MIC Test was carried out using successively lower concentrations of compounds. Sterile tryptic soy broth (50 microliters; TSB, available from BD Dfico, Becton, Dickinson and Company, Franklin Lakes, N.J.) was deposited into each well of a sterile polystyrene 96-well microtiter plate. Into each well in the first (leftmost) column of the plate, there was then deposited a 50 microliter aliquot (of known concentration) of a compound (I.e., a compound of Formula I, or a pharmaceutically acceptable salt thereof, or comparative compound). A 50 microliter aliquot of the mixture in the first (leftmost) well in the first row of the plate was transferred to the second well in the first row. A 50 microliter aliquot of the mixture in the second well in the first row was then transferred to the third well in the first row. The compound was successively diluted (1:1 dilution at each step) by transferring a 50 microliter aliquot from one well into the next well, across the row of the plate. This procedure was repeated for each row of the plate. Then, an overnight culture of Streptococcus mutans (strain ATCC 25175) was diluted 1:100 into sterile tryptic soy broth. A 50 microliter aliquot of the diluted S. mutans culture (10^5 CFU) was deposited into each well of the microtiter plate. The plate was then incubated at 37° C. for 24 hours in a sealed humidified chamber. The plate was then visually inspected to determine the lowest concentration of compound at which no bacterial growth was visible. This value was considered to be the minimum inhibitory concentration (MTC) for the compound. The test was repeated using Staphylococcus aureus (strain ATCC 6538) and Pseudomonas aeruginosa (strain ATCC 9027) in place of S. mutans. A sample of each of the compounds of Formulae II, III, IV, V, and VI (0.050 g each) was dissolved in water (5 g). Each of the samples was evaluated using the Minimum Inhibitory Concentration (MIC) Test described above with S. mutans, S. aureus, and P. aeruginosa. In Table 3, “none” means that no inhibitory activity was detected.

[4] = system: Staphylococcus aureus (strain ATCC 6538); experiment: Minimum Inhibitory Concentration (MIC) Test, S. aureus; settings: tryptic soy broth, 37° C., 24 hours, "none" = no inhibitory activity detected
Experimental: as §2

[5] = system: Pseudomonas aeruginosa (strain ATCC 9027); experiment: Minimum Inhibitory Concentration (MIC) Test, P. aeruginosa; settings: 37° C., 24 hours, "none" = no inhibitory activity detected
Experimental: as §2

[6] = system: Streptococcus mutans (ATCC 25175) biofilm; experiment: Biofilm Inhibition Test: concentration of compound to inhibit biofilm formation at varied sucrose
[7] = Streptococcus mutans, ATCC25175, tryptic soy broth, read-out: MIC

| MIC [3, 7] [µg/mL] | MIC [4] | MIC ([5]; Pseudomonas aeruginosa, ATCC9027, tryptic soy broth, read-out: MIC) [µg/mL] | MIC ([5]; tryptic soy broth) | MIC ([3]; tryptic soy broth) | Compound | OD Ratio [1] [%] | Visual Assessment [2] | Concentration of Compound to Inhibit Biofilm Formation ([6]; 1 wt % Sucrose) [mM] | Concentration of Compound to Inhibit Biofilm Formation ([6]; 2.5 wt % Sucrose) [mM] | Concentration of Compound to Inhibit Biofilm Formation ([6]; 5 wt % Sucrose) [mM] |
| --- | --- | --- | --- | --- | --- | --- | --- | --- | --- | --- |
| 2500 (≈ 7.45 mM) | none |  | none |  | CCCCCCCCC(=O)N(C)C[C@H](O)[C@@H](O)[C@H](O)[C@H](O)CO [N-Methyl-N-nonanoyl-D-glucamine, N-methyl-N-nonanoyl-D-glucamine] | 0 | + |  |  |  |
|  | none |  | none | none | CCCCCCCC(=O)N(C)C[C@H](O)[C@@H](O)[C@H](O)[C@H](O)CO [N-Methyl-N-octanoyl-D-glucamine, N-methyl-N-octanoyl-D-glucamine] | 0 | + |  |  |  |

The remaining lines, values behind:

| Compound | MIC [3, 7] [µg/mL] | MIC [4] | MIC ([5]; Pseudomonas aeruginosa, ATCC9027, tryptic soy broth, read-out: MIC) [µg/mL] | MIC ([5]; tryptic soy broth) | MIC ([3]; tryptic soy broth) | OD Ratio [1] [%] | Visual Assessment [2] | Concentration of Compound to Inhibit Biofilm Formation ([6]; 1 wt % Sucrose) [mM] | Concentration of Compound to Inhibit Biofilm Formation ([6]; 2.5 wt % Sucrose) [mM] | Concentration of Compound to Inhibit Biofilm Formation ([6]; 5 wt % Sucrose) [mM] |
| --- | --- | --- | --- | --- | --- | --- | --- | --- | --- | --- |
| CCCCCCCCCC(=O)N(C)C[C@H](O)[C@@H](O)[C@H](O)[C@H](O)CO [N-Methyl-N-decanoyl-D-glucamine, N-methyl-N-decanoyl-D-glucamine] | 1250 (≈ 3.58 mM) | 2.50 | 2500 (≈ 7.15 mM) |  |  | 0 | + |  |  |  |
| NC[C@H](O)[C@@H](O)[C@H](O)[C@H](O)CO [D-Glucamine, D-glucamine] |  | none |  | none | none | 101.5 | + |  |  |  |
| CNC[C@H](O)[C@@H](O)[C@H](O)[C@H](O)CO [N-Methyl-D-glucamine, N-methyl-D-glucamine] |  | none |  | none | none | 0 | + | 50 | 50 | 50 |
